This test addresses T1, eNOS (Homo sapiens, UniProt P29474).
T1 construct: endogenous in cells; host or cells: HAECs (human aortic endothelial cells)
T1 sequence (P29474 2-1203 limits assumed): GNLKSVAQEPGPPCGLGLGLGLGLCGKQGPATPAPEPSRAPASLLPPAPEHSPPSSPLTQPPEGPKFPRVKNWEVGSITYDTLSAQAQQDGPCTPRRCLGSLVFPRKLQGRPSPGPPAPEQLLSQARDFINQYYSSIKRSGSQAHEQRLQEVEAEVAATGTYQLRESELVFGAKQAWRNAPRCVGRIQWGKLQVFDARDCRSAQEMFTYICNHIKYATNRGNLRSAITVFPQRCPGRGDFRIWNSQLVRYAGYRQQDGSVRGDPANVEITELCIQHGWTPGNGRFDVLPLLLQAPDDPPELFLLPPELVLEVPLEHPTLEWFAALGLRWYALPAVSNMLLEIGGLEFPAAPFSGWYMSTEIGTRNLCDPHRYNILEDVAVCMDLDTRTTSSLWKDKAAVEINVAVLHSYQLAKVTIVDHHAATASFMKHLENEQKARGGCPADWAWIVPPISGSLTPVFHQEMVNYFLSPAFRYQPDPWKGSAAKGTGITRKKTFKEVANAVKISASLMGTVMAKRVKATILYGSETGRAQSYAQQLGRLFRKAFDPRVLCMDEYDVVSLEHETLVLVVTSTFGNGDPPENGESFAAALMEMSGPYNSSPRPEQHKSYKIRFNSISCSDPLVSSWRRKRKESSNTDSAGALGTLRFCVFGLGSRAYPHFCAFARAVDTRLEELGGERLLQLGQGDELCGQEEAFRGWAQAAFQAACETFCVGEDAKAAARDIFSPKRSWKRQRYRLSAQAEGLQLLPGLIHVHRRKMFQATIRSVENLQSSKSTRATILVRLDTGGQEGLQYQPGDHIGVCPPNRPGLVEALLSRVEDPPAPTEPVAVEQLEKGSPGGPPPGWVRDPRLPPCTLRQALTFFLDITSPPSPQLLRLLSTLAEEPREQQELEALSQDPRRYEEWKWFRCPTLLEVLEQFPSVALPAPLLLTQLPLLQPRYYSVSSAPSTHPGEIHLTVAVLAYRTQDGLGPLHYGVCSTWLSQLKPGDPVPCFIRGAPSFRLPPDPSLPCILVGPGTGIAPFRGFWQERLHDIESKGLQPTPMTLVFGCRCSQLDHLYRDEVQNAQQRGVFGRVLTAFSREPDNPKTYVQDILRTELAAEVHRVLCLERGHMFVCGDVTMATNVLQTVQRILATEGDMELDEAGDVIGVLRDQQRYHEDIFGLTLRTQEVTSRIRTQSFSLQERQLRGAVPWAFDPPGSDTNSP
Nature of the test: eNOS activity in intact HAECs (3H-Arg to 3H-citrulline conversion). Type of test: cell-based. As to the method:
(FIG. 6A). Images of NO. Nitric oxide (NO) production in HAECs was measured by staining intact HAECs with NO marker DAF-FM. N^G-nitro-L-arginine methyl ester (L-NAME, 100 μmol/L, Sigma #N5751) was added in the last hour as a negative control. (FIG. 6B). Quantification of NO. (FIG. 6C). eNOS activity. Human aortic endothelial cells (HAECs) were cultured in EC medium which contains 5 mmol/L D-Glucose (D-Glu), and treated with DL-homocysteine (DL-Hcy, 500 μmol/L) and/or (D-Glu, 25 mmol) without or with MDL28170 (MDL) for 48 hrs, CTsiRNA or μ-calpsiRNA for 72 hrs. L-NAME (100 μmol/L) was added in the last hour. NO was measured by staining intact HAECs with NO marker (DAF-FM, 10 μmol/L, Sigma #D2321, 30 mins.). Endothelial nitric oxide synthase (eNOS) activity was assessed by measuring of ^3H-L-arginine conversion to ^3H-citrulline in intact HAECs. n=3, *p<0.05 vs control; †p<0.05 vs DL-Hcy-treated HAECs; ‡p<0.05 vs D-Glu-treated HAECs; #p<0.05 vs DL-Hcy/D-Glu-treated HAECs. DAF-FM, 4-Amino-5-methylamino-2′,7′-difluorescein; CTsiRNA, control siRNA; HG, hyperglycemia; HHcy, hyperhomocysteinemia; μ-calpsiRNA, μ-calpain siRNA.
HAECs treated with or without DL-Hcy and/or D-Glu for 48 hrs were stained with 4-Amino-5-Methylamino-2′,7′-Difluorofluorescein (DAF-FM). To explore the role of calpain, especially μ-calpain, the DL-Hcy/D-Glu-treated HAECs were also treated with MDL28170 (MDL, 20 μmol/L) and μ-calpain siRNA, respectively. HAECs treated with L-NAME (100 μmol/L) for 1 hr before DAF-FM staining were used as negative controls. eNOS activity in HAECs was determined by measuring the conversion of ^3H-Arg to ^3H-citrulline in intact cells as previous described (Jiang et al., 2005, Arterioscl Throm Vas 25:2515-2521).

The mark [1] stands for this setting: HAECs, DL-Hcy 500 μmol/L and/or D-Glu 25 mmol/L for 48 hrs, relative to control.

Here are results for three compounds from patent publication US20160089391A1, “Molecular Targets for Cardiovascular Disease” (Temple University-of the Commonwealth System of Higher …, priority 2014, published 2016).

`O=C[C@H](O)[C@@H](O)[C@H](O)[C@H](O)CO` [D-Glu, D-glucose] showed an eNOS activity under setting [1] of 52%. Take MDL28170: the eNOS activity (HHcy/HG (DL-Hcy/D-Glu)-treated HAECs, improved from 35% (MDL) or printed 26% (siRNA), MDL 20 μmol/L 48 hrs, siRNA 72 hrs) was 74%. For `NC(CCS)C(=O)O` (racemic) [DL-Hcy, DL-homocysteine], the eNOS activity under setting [1] was found to be 69%.
